Reference: article PMC10648852, “Molecular drivers of resistance to sulbactam-durlobactam in contemporary clinical isolates of Acinetobacter baumannii” (Antimicrobial Agents and Chemotherapy, 2023)

How the values were obtained:
Assay in all cases: microbe, parasite or virus in culture
[1] = test system: A. nosocomialis clinical isolate; type: cell-based; conditions: isolate ARC7023 (IHMA 2118812), France, BSI, 2019
Method: (§1) The following report describes the genomic analysis of these isolates for likely resistance mechanisms. Biochemical analysis of purified PBP3 and phenotypic analyses of both clinical and isogenic strains were also conducted to determine the relative impact of key resistance determinants to SUL-DUR antibacterial activity.
(§2) Antimicrobial susceptibility testing was performed using broth microdilution following standardized methods established by the Clinical Laboratory Standards Institute (CLSI) ([35], [36]). […] MIC values were interpreted using CLSI breakpoints for all antimicrobial agents except those for which CLSI breakpoints are not available ([35]). SUL-DUR was tested as twofold dilutions of sulbactam in combination with a fixed concentration of 4 µg/mL durlobactam ([35]).

[2] = test system: A. baumannii clinical isolates; type: cell-based
Method: as §1, §2

[3] = test system: A. pittii clinical isolates; type: cell-based
Method: as §1, §2

[4] = test system: ABC clinical isolates with SUL-DUR MIC > 4 µg/mL; type: cell-based, Acinetobacter baumannii-calcoaceticus complex
Method: as §1, §2

**Q.** Which results are given for `NCC[C@H](O)C(=O)N[C@@H]1C[C@H](N)[C@@H](O[C@H]2O[C@H](CN)[C@@H](O)[C@H](O)[C@H]2O)[C@H](O)[C@H]1O[C@H]1O[C@H](CO)[C@@H](O)[C@H](N)[C@H]1O` [AMK]?
**A.** MIC [1]: 4 µg/mL; MIC ([2]; isolate ARC6644 (IHMA 1420327), Mexico, UTI, 2016): >64 µg/mL; MIC ([2]; isolate ARC6645 (IHMA 1435703), France, UTI, 2016): 2 µg/mL; MIC ([2]; isolate ARC6646 (IHMA 1484127), United States, RTI, 2016): >64 µg/mL; MIC ([2]; isolate ARC6647 (IHMA 1386786), Argentina, RTI, 2016): >64 µg/mL; MIC ([2]; isolate ARC6648 (IHMA 1407634), Spain, RTI, 2016): 4 µg/mL; MIC ([2]; isolate ARC6650 (IHMA 1457337), Argentina, RTI, 2016): 16 µg/mL; MIC ([2]; isolate ARC6652 (IHMA 1465642), Belgium, RTI, 2016): 4 µg/mL; MIC ([2]; isolate ARC6653 (IHMA 1308777), Vietnam, RTI, 2016): >64 µg/mL; MIC ([2]; isolate ARC6799 (IHMA 1562935), Spain, UTI, 2017): 64 µg/mL; MIC ([2]; isolate ARC6800 (IHMA 1557526), Turkey, RTI, 2017): >64 µg/mL; MIC ([2]; isolate ARC6801 (IHMA 1662094), Thailand, RTI, 2017): 32 µg/mL; MIC ([2]; isolate ARC6802 (IHMA 1557073), Spain, UTI, 2017): >64 µg/mL; MIC ([2]; isolate ARC6803 (IHMA 1589408), Belgium, UTI, 2017): 4 µg/mL; MIC ([2]; isolate ARC6805 (IHMA 1558650), United States, RTI, 2017): >64 µg/mL; MIC ([2]; isolate ARC6808 (IHMA 1557168), Spain, RTI, 2017): 2 µg/mL; MIC ([2]; isolate ARC6809 (IHMA 1699528), Guatemala, RTI, 2017): 32 µg/mL; MIC ([2]; isolate ARC6810 (IHMA 1699548), Guatemala, RTI, 2017): >64 µg/mL; MIC ([2]; isolate ARC6812 (IHMA 1699530), Guatemala, RTI, 2017): 4 µg/mL; MIC ([2]; isolate ARC6813 (IHMA 1699543), Guatemala, UTI, 2017): 32 µg/mL; MIC ([2]; isolate ARC6814 (IHMA 1699512), Guatemala, RTI, 2017): >64 µg/mL; MIC ([2]; isolate ARC6815 (IHMA 1699513), Guatemala, RTI, 2017): 64 µg/mL; MIC ([2]; isolate ARC6816 (IHMA 1699521), Guatemala, RTI, 2017): >64 µg/mL; MIC ([2]; isolate ARC6817 (IHMA 1699523), Guatemala, RTI, 2017): 16 µg/mL; MIC ([2]; isolate ARC6818 (IHMA 1683261), Thailand, RTI, 2017): 2 µg/mL; MIC ([2]; isolate ARC6819 (IHMA 1683267), Thailand, RTI, 2017): >64 µg/mL; MIC ([2]; isolate ARC6820 (IHMA 1647876), Argentina, RTI, 2017): 4 µg/mL; MIC ([2]; isolate ARC6821 (IHMA 1699517), Guatemala, RTI, 2017): 2 µg/mL; MIC ([2]; isolate ARC6822 (IHMA 1637626), Guatemala, RTI, 2017): 8 µg/mL; MIC ([2]; isolate ARC6823 (IHMA 1620872), Greece, SSSI, 2017): >64 µg/mL; MIC ([2]; isolate ARC6824 (IHMA 1625487), Argentina, BSI, 2017): 64 µg/mL; MIC ([2]; isolate ARC6937 (IHMA 1562926), Spain, UTI, 2017): 64 µg/mL; MIC ([2]; isolate ARC6950 (IHMA 1820064), Israel, RTI, 2018): >64 µg/mL; MIC ([2]; isolate ARC6953 (IHMA 1909827), Turkey, IAI, 2018): 8 µg/mL; MIC ([2]; isolate ARC6954 (IHMA 1838192), Guatemala, SSSI, 2018): 16 µg/mL; MIC ([2]; isolate ARC6955 (IHMA 1825425), United States, RTI, 2018): 64 µg/mL; MIC ([2]; isolate ARC7008 (IHMA 2009813), Thailand, BSI, 2019): >64 µg/mL; MIC ([2]; isolate ARC7009 (IHMA 2043611), United States, UTI, 2019): >64 µg/mL; MIC ([2]; isolate ARC7010 (IHMA 2043398), United States, RTI, 2019): >64 µg/mL; MIC ([2]; isolate ARC7011 (IHMA 2104553), Germany, RTI, 2019): >64 µg/mL; MIC ([2]; isolate ARC7012 (IHMA 2010001), Thailand, RTI, 2019): >64 µg/mL; MIC ([2]; isolate ARC7013 (IHMA 1962831), Argentina, RTI, 2019): >64 µg/mL; MIC ([2]; isolate ARC7014 (IHMA 2045328), Guatemala, IAI, 2019): >64 µg/mL; MIC ([2]; isolate ARC7015 (IHMA 2045327), Guatemala, UTI, 2019): 32 µg/mL; MIC ([2]; isolate ARC7016 (IHMA 2148441), Brazil, BSI, 2019): >64 µg/mL; MIC ([2]; isolate ARC7017 (IHMA 2148446), Brazil, BSI, 2019): 64 µg/mL; MIC ([2]; isolate ARC7018 (IHMA 2045454), Guatemala, IAI, 2019): 32 µg/mL; MIC ([2]; isolate ARC7019 (IHMA 2114463), Thailand, RTI, 2019): >64 µg/mL; MIC ([2]; isolate ARC7020 (IHMA 2045326), Guatemala, RTI, 2019): >64 µg/mL; MIC ([2]; isolate ARC7021 (IHMA 1966347), Guatemala, RTI, 2019): 64 µg/mL; MIC ([2]; isolate ARC7022 (IHMA 2045319), Guatemala, IAI, 2019): >64 µg/mL; MIC ([2]; isolate ARC7024 (IHMA 2059448), Turkey, RTI, 2019): >64 µg/mL; MIC ([2]; isolate ARC7025 (IHMA 2002121), Spain, RTI, 2019): 2 µg/mL; MIC ([2]; isolate ARC7026 (IHMA 2104494), Guatemala, BSI, 2019): 64 µg/mL; MIC ([2]; isolate ARC7082 (IHMA 2160640), Belgium, BSI, 2020): >64 µg/mL; MIC ([2]; isolate ARC7083 (IHMA 2163687), United States, RTI, 2020): >64 µg/mL; MIC ([2]; isolate ARC7084 (IHMA 2189596), Germany, RTI, 2020): >64 µg/mL; MIC ([2]; isolate ARC7085 (IHMA 2205747), Guatemala, IAI, 2020): >64 µg/mL; MIC ([2]; isolate ARC7086 (IHMA 2207563), Israel, RTI, 2020): >64 µg/mL; MIC ([2]; isolate ARC7088 (IHMA 2215554), Turkey, BSI, 2020): >64 µg/mL; MIC ([2]; isolate ARC7089 (IHMA 2240345), Argentina, BSI, 2020): 2 µg/mL; MIC ([2]; isolate ARC7090 (IHMA 2244410), Poland, RTI, 2020): >64 µg/mL; MIC ([2]; isolate ARC7091 (IHMA 2244564), Australia, RTI, 2020): 16 µg/mL; MIC ([2]; isolate ARC7092 (IHMA 2258772), United States, BSI, 2020): >64 µg/mL; MIC ([2]; isolate ARC7093 (IHMA 2258783), United States, RTI, 2020): >64 µg/mL; MIC ([2]; isolate ARC7094 (IHMA 2296423), Turkey, RTI, 2020): 64 µg/mL; MIC ([2]; isolate ARC7095 (IHMA 2320843), Turkey, BSI, 2020): >64 µg/mL; MIC ([2]; isolate ARC7156 (IHMA 2455450), Greece, RTI, 2021): >64 µg/mL; MIC ([2]; isolate ARC7158 (IHMA 2523738), Italy, BSI, 2021): >64 µg/mL; MIC ([2]; isolate ARC7159 (IHMA 2456229), Malaysia, RTI, 2021): >64 µg/mL; MIC ([2]; isolate ARC7160 (IHMA 2458626), Thailand, RTI, 2021): >64 µg/mL; MIC ([2]; isolate ARC7161 (IHMA 2429252), Ukraine, RTI, 2021): >64 µg/mL; MIC ([2]; isolate ARC7162 (IHMA 2411847), United States, BSI, 2021): >64 µg/mL; MIC ([2]; isolate ARC7163 (IHMA 2477704), United States, BSI, 2021): >64 µg/mL; MIC ([3]; isolate ARC6949 (IHMA 1898982), Romania, RTI, 2018): >64 µg/mL; MIC ([3]; isolate ARC6951 (IHMA 1776233), Philippines, RTI, 2018): 32 µg/mL; MIC ([3]; isolate ARC6952 (IHMA 1899008), Romania, RTI, 2018): >64 µg/mL; MIC ([3]; isolate ARC7087 (IHMA 2212062), Colombia, BSI, 2020): 8 µg/mL; MIC50 [4]: >64 µg/mL; MIC90 [4]: >64 µg/mL; MIC Max [4]: >64 µg/mL; MIC Min [4]: 2 µg/mL; %NS (% non-susceptibility) ([4]; 64 non-clonal ABC isolates, 2023 CLSI breakpoints plus FDA breakpoint of 4 µg/mL for SUL-DUR): 75%
